Assay results as given in patent US20050238685A1, “Method of binding a compound to a surface” (priority 2002, published 2005).

Legend:
[1] = Glucose oxidase and peroxidase immobilized on hydrophobin-coated TEFLON sheets, o-dianisidine colour assay at 435 nm; format: biochemical; conditions: hydrophobin-coated TEFLON sheet (SC3, trSC3, SC4), partner enzyme in solution
Protocol: The coating was achieved by incubating the TEFLON™ at 25° C. in 2 ml of a 100 μg/ml hydrophobin solution (here SC3, trSC3 and SC4 were used in separate experiments) in a 3 ml glass vial for 15 minutes. The sheets were removed from the hydrophobin solution and were washed with large amounts of water to remove any unbound hydrophobin.
Both sheets were placed in a container containing o-dianisidine and, upon addition of glucose, the solution became colored.
The functionalized TEFLON™ is still active after storage for several weeks at 4° C.

[2] = Different enzymes immobilized via SC3 hydrophobin on TEFLON, spectrophotometry at 412 and 435 nm; format: biochemical; conditions: SC3-coated TEFLON
Protocol: The surface was first coated with SC3 hydrophobin by immersion in the protein aqueous solution (0.3 mg/mL) during approximately 30 minutes. The obtained modified surface was then immersed in an aqueous enzyme solution during approximately 30 minutes. After each step, the TEFLON™ surface was rinsed with an adequate buffer solution. Activity of the immobilized enzymes was followed by spectrophotometry at 412 and 435 nm after immersion of the functionalized surface in the corresponding substrate solution. The optical density of the solution increases after the immersion of the functionalized surface and stays constant after its removal. […] The functionalized TEFLON® was stored at 4° C. in an Eppendorf tube containing a buffer solution.
(Biocatalysts, Wales; final concentration 2.1 mg/mL), lipase from Candida cylindracea (Biocatalysts, Wales; final concentration 0.25 mg/mL), porcine liver esterase (SIGMA; 41 U/mg of solid, final concentration 2.4 mg/mL), bovine pancreas trypsin (SIGMA; 8,750 U/mg of solid).

[3] = Cholesterol oxidase immobilized on hydrophobin-coated glassy carbon electrode, current response to cholesterol; format: biochemical; conditions: phosphate buffer pH 7
Text: To overcome the poor solubility of cholesterol in water, the cholesterol was solubilized in isopropanol with Triton in phosphate buffer (Ropers, M.-H. et al., 2001, Phys. Chem. Chem. Phys. 3:240-245).

[4] = hydrophobin-coated glassy carbon electrode, phosphate buffer pH 7
Protocol: Glassy carbon electrode was coated with hydrophobin by placing the electrode in a solution of hydrophobin (100 μg/ml) and incubating for 15 minutes, after which the electrode was thoroughly rinsed with water.
The electrode, modified and functionalized with the enzyme, was placed in a three electrode system, including an Ag/AgCl reference electrode and a Pt counter electrode, using phosphate buffer pH 7 (25 mM).
The modified electrode was stored in a sealed container, not in liquid, at 4° C., and tested frequently for activity and response to glucose.

firefly luciferase: firefly luciferase (Roche, cat no. 411523)
activity of enzyme attached to bare wells: not active

peroxidase: horseradish peroxidase (SIGMA)
activity of immobilized enzyme (oxidation of o-dianisidine upon addition of glucose) [1]: Coloring of the solution | state of immobilized enzymes (denaturation, desorption) [2]: not denatured and are not desorbed from the surface | function after storage ([2]; 4° C. in buffer solution): still functional after several weeks

cholesterol oxidase
activity of immobilized cholesterol oxidase [3]: remaining active

glucose oxidase
activity of glucose oxidase upon immobilization on the hydrophobin layer [4]: remained active | activity of immobilized enzyme (oxidation of o-dianisidine upon addition of glucose) [1]: absorption at 435 nm was observed
